Reference: PMC2453235, “Identification and Rational Redesign of Peptide Ligands to CRIP1, A Novel Biomarker for Cancers” (PLoS Computational Biology, 2008)
Where a SMILES comes first, the peptide text is derived from it. Bridges are numbered along the chain shown (N, C = ends).

How the values were obtained:
[1] = molecular target: T1, CRIP1 (Homo sapiens, UniProt P50238); assay: Competitive binding assay against FITC-A1M; details: A1M vs A1, competing for FITC-A1M binding, from IC50
T1 construct: enterokinase cleavage site and vector linker residues (N); made in house; host or cells: E. coli (pHAT10-CRIP1, IPTG induction)
T1 sequence (P50238 1-77): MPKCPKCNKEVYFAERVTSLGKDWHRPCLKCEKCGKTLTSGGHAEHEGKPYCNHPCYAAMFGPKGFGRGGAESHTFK
Procedure: The binding affinity of the A1 and A1M peptides for CRIP1 protein was directly compared by a competitive binding experiment,[56]. Labeled A1M peptide (FITC-A1M) was competed with increasing concentrations of either unlabeled A1M peptides or A1 peptide and the IC50 for each peptide calculated.
Ninety-six well plates were coated with 150 µl of PBS buffer containing 100 µg/ml of CRIP1 and incubated overnight at 4°C. The wells were then washed 3 times with 50 mM Tris, 150 mM NaCl, pH 7.5 (TBS) containing 0.1% Tween-20 (TBST), and then each well filled completely with blocking buffer (TBS containing 0.5% BSA), incubated at least 1 hour at 4°C, and then rapidly washed 3 times with TBST. Following washing 150 µl of binding buffer containing FITC-A1M peptides of 10 µM and appropriate dilutions of unlabeled A1 and A1M peptides (ranging from 0 to 300 µM) were added to the CRIP1 containing wells and incubated for 1 hour at 37°C with rocking. After incubation, the plates were washed three times with binding buffer. The fluorescence intensity in each well was determined on Infinite M200 Tecan Instrument (Tecan, NC) (Excitation wavelength: 494 nm, Emission wavelength: 530 nm). Ki was calculated by non-linear regression with one binding site using GraphPad Prism (GraphPad Prism 4.0 Software, San Diego, CA). […]

[2] = molecular target: T1, CRIP1; assay: Saturation binding of FITC-labeled peptides; details: ΔΔG = RT ln K d,A1M − RT ln K d,A1, from apparent dissociation constants
From the text: We computationally redesigned A1 resulting in a peptide with a new sequence (denoted as A1M) predicted to bind to CRIP1 with higher affinity. To test this prediction, A1, B5 and A1M peptides were all synthesized and labeled with FITC for binding studies. Since the peptides encoded by the C7C phage library are at the N-terminus of the minor phage coat protein pIII followed by a short phage encoded spacer Gly-Gly-Gly-Ser, we included this 4-mer in the synthesized peptide. An additional C-terminal Lys was also included in order to enable fluorescent labeling of the peptide. […] We synthesized the cyclic form of the peptides, A1, B5 and A1M and determined their ability to bind CRIP1 using saturation binding experiments. […] To directly compare the affinity of the A1 and A1M peptides for CRIP1 protein, we performed a competitive binding assay and determined the IC50 for each of the peptides using FITC-A1M as the ligand. […]
The binding affinity of the peptides for CRIP1 protein was determined by saturation binding experiments,[55]. […] The fluorescence intensity in each well was determined on Infinite M200 Tecan Instrument (Tecan, NC) (Excitation wavelength: 494 nm, Emission wavelength: 530 nm). The apparent equilibrium dissociation constant, K d,apparent, was calculated by non-linear regression using GraphPad Prism (GraphPad Prism 4.0 Software, San Diego, CA). […]

Structure (SMILES): CC(C)C[C@@H]1NC(=O)[C@@H](N)CSSC[C@@H](C(=O)NCC(=O)NCC(=O)NCC(=O)N[C@@H](CO)C(=O)N[C@@H](CCCCN)C(N)=O)NC(=O)CNC(=O)[C@H](CCCCN)NC(=O)CNC(=O)CNC(=O)CNC(=O)[C@H](CC(=O)O)NC1=O [A1M] (H-CLDGGGKGCGGGSK-NH2; disulfide 1-9; N-terminus assumed)
- binding affinity relative to A1 (fold better) [1]: approximately 27.5 times
- experimental free energy change ΔΔG [2]: -1.6 kcal/mol
